The results in this text go back to patent US20220274983A1, “JAK KINASE INHIBITOR AND USE THEREOF” (JIANGSU CAREPHAR PHARMACEUTICAL CO., LTD., priority 2019, published 2022).

One series addresses JAK1 (Homo sapiens, UniProt P23458). In words: JAK kinase inhibitory activity, HTRF biochemical assay. The procedure: (§1) The compounds of the above embodiments were applied to the detection and screening of JAK kinase inhibitory activity.
(§2) A corresponding volume of DMSO was added to each well of a first 96-well plate. 20-30 μL of 100-200 μM stock solution of different test compounds were added to each well. The mixture was shaken and mixed for 3 min. All of the compounds were subjected to 3× serial dilution. 60-80 μL Kinase buffer was added to each well of a second 96-well plate, and 1-2 μL of the solution taken from each well of the first 96-well plate was added to the corresponding well of the second 96-well plate. The mixture was shaken and mixed for 3 min. 5 μL of compound dilution taken from each well of the second compound dilution plate was transferred to the corresponding well of a 384-well test plate. 1-2 μL TK Substrate-biotin was added to each well of the test plate. 1-2 μL of enzyme mixture was added to each well. At the same time, a blank well without enzyme was set. 1-2 μL of ATP solution was added to each well, the plate was sealed and reacted at room temperature. The reaction time was as follows: JAK1: 2 h, JAK2: 30 min, JAK3: 30 min, and TYK2: 50 min. 3-5 μL of Streptavidin-XL665 and 3-5 μL of TK Antibody-cryptate were added to each well, the plate was sealed and allowed to stand at room temperature for 30 min to complete the reaction.
(§3) The percentage of inhibition was calculated based on the following formula:
(§4) Inhibition %=[(Ratiomax−Ratiocompound)/(Ratiomax−Ratiomin)]×100%
(§5) Ratiocompound is the HTRF ratio at a given compound concentration, Ratiomin is the HTRF ratio added to the blank well, and Ratiomax is the HTRF ratio without adding the compound. GraphPad Prism 5.0 software was used to plot a sigmoid dose-inhibition rate curve with a non-linear regression model and calculate the IC50 value.
Background: In TR-FRET formats the signal depends on donor and acceptor labels being close together.

Another series has as its system Hela cells. In words: Proliferation inhibition based on Hela cells (OSM stimulation, CTG). Format: cell-based. The settings on record: Homo sapiens, OSM stimulation, read-out: IC50 (uM), proliferation inhibitory activity on Hela cells. The procedure:
1. Cell plating: cultured cells were collected and counted for viable cells with Vi-Cell XR cell counter. The cell suspension was adjusted to an appropriate concentration with the medium and then added to a 96-well cell culture plate. 50 μL-100 μL of the cell suspension was added to each well of the 96-well cell culture plate. The cell plating density depended on the growth rate of the cells. The cells were cultured in corresponding incubators.
2. Drug Treatment and OSM Stimulation
Firstly, a series of test compound concentration (work solution-1) was prepared using DMSO with 3× gradient dilution, and then it was subjected to fold dilution with RPMI1640+10% FBS to obtain a work solution-2; Cisplatin's work solution-2 was prepared with RPMI1640+10% FBS, and then 1-10 μL solution taken from the work solution-2 was added to the prepared cell wells containing medium. After incubation, 1-10 μL of OSM medium was added to each well and continued to culture. An appropriate CTG solution was added to each well. The mixture was shaken and mixed for 1-5 min and then a luminescence signal was determined with an Envision2104 plate reader.
(§6) Cell Survival Rate Calculation
(§7) T is the luminescence reading of a drug treatment group, and C is the average luminescence reading of a solvent control group.

Another series has as its system BaF3 cells. In words: Proliferation inhibition based on BaF3 cells (IL-3 medium, CTG). The settings on record: Mus musculus, medium containing IL-3, read-out: IC50 (uM), proliferation inhibitory activity on BaF3 cells. Format: cell-based. The procedure:
1. Cell plating: cultured cells were collected with RPMI1640+10% FBS (containing IL-3) medium and counted for viable cells with Vi-Cell XR cell counter. The cell suspension was adjusted to an appropriate concentration with RPMI1640+10% FBS (containing IL-3) medium and then added to a 96-well cell culture plate. A certain amount of cell suspension was added to each well of the 96-well cell culture plate. The cells were cultured in corresponding incubators.
(§8) 2. Drug treatment: a series of test compound concentration (work solution-1) was prepared using DMSO with 3× gradient dilution, and then it was subjected to fold dilution with RPMI1640+10% FBS (containing IL-3) to obtain a work solution-2; Cisplatin's work solution-2 was prepared with RPMI1640+10% FBS (containing IL-3), and then 1-10 μL solution taken from the work solution-2 was added to the prepared cell wells containing medium. The cells were cultured in the corresponding incubators. An appropriate CTG solution was added to each well.
as §6, §7

The test system of the next series is THP1 cells. Kind of series: Proliferation inhibition based on THP1 cells (IL-4 stimulation, CTG). Format: cell-based. The settings on record: Homo sapiens, THP-1, read-out: IC50 (uM), proliferation inhibitory activity on THP1 cells. The method, then: 1. Cell plating: cultured cells were collected and counted for viable cells with Vi-Cell XR cell counter. The cell suspension was adjusted to an appropriate concentration with the medium and then added to a 96-well cell culture plate. 80 μL of the cell suspension was added to each well of the 96-well cell culture plate. The cell plating density depended on the growth rate of the cells. The cells were cultured in corresponding incubators.
as §8, with “treatment and IL-4 stimulation: firstly,” for “treatment:”, “FBS” for “FBS (containing IL-3)”, “FBS,” for “FBS (containing IL-3),”, “incubators. After incubation, 1-10 μL of IL-4 medium was added to each well and continued to culture.” for “incubators.”
Cell Survial Rate Calculation
as §7

The target in the next series is JAK2 (Homo sapiens, UniProt O60674). In words: JAK kinase inhibitory activity, HTRF biochemical assay. The procedure: as §1, §2, §3, §4, §5
In series [1] the test system is rat CIA model. Kind of series: Hindfoot foot volume in rat CIA model. Format: in vivo, Lewis rats. The settings on record: CIA rats, hindfoot, 2 mg/kg oral gavage once daily for 2 w.
The next series can be described thus: Body weight of CIA rats. The note with it: 2 mg/kg oral gavage once daily for 2 w.
Series [2] concerns rat CIA model. Kind of series: Arthritis index (AI) of extremities in rat CIA model.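 Note: rats immunized with type II collagen plus complete Freund's adjuvant on day 0, boosted day 7, groups of 8, each paw graded 0-4 for swelling or redness, higher means worse.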 The settings on record: CIA rats, 2 mg/kg oral gavage once daily for 2 w, score 0-16.
Description: (§9) Lewis rats (female, 10-12 weeks old) were obtained from Beijing Vital River Laboratory Animal Technology Co., Ltd. The rats were on a light and dark alternation for 12 h, and the environment was kept at a temperature of 23±2° C. and a humidity of 40-70%.
(§10) Type II collagen solution (2 mg/mL) was prepared with 0.05 M acetic acid solution to allow to be fully dissolved, and placed overnight in the dark at 4° C. During the test, 2 mg/mL type II collagen (C II) solution and 4 mg/mL complete Freund's adjuvant (CFA) solution were mixed in equal volumes under ice bath conditions to fully emulsify. On day 0, an emulsion prepared by mixing equal volumes of C II (2 mg/mL) and CFA (4 mg/mL) was injected intracutaneously into the base of the tail of experimental rats for primary immunization, and on day 7, secondary booster immunization was performed.
(§11) The therapeutic effect of the test compound was tested in a rat CIA model. The rats were randomly divided into groups with 8 animals in each group. All animals were immunized on day 0 and boosted on day 7.
Foot volume was scored for the swelling of four toes at the same time, the score for each foot was 0-4, and the highest score for each rat was 16. 0—no swelling, normal appearance; 1—mild swelling or redness of the ankle joint, wrist joint or finger joint; 2—moderate swelling or redness of the ankle joint, wrist joint or finger joint; 3—severe swelling or redness of the ankle joint, wrist joint or finger joint; 4—very severe swelling or redness of the ankle joint, wrist joint or finger joint.

Chain of JAK1 (P23458 whole entry, species assumed): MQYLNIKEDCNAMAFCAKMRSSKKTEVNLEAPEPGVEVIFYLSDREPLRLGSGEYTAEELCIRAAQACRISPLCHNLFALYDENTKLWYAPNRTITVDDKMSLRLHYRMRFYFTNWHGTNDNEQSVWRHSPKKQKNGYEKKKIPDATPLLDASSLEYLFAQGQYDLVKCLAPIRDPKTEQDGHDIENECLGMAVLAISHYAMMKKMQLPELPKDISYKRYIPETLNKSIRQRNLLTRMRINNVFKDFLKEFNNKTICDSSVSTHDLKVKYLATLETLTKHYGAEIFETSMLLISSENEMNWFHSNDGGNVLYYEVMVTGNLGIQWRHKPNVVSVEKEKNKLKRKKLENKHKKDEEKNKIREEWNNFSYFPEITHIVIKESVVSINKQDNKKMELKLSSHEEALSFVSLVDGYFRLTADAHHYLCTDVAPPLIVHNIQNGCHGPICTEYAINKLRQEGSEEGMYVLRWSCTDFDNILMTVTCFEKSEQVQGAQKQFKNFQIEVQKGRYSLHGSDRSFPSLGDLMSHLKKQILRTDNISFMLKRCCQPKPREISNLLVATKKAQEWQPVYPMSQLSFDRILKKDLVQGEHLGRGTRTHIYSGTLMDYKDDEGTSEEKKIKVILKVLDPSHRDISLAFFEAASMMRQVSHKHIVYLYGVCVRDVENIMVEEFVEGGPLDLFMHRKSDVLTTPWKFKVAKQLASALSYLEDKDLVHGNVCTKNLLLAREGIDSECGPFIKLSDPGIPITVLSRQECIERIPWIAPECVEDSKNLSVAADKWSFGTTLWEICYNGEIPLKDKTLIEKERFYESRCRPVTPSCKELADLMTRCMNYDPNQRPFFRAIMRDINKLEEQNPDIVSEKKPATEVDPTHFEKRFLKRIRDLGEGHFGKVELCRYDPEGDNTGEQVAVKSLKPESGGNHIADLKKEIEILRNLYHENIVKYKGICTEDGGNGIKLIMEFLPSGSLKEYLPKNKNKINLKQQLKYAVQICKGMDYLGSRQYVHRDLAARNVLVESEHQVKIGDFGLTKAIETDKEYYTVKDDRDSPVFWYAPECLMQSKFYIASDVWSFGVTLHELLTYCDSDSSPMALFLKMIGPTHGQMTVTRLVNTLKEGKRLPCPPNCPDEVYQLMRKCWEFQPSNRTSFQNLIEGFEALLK
Chain of JAK2 (O60674 whole entry, species assumed): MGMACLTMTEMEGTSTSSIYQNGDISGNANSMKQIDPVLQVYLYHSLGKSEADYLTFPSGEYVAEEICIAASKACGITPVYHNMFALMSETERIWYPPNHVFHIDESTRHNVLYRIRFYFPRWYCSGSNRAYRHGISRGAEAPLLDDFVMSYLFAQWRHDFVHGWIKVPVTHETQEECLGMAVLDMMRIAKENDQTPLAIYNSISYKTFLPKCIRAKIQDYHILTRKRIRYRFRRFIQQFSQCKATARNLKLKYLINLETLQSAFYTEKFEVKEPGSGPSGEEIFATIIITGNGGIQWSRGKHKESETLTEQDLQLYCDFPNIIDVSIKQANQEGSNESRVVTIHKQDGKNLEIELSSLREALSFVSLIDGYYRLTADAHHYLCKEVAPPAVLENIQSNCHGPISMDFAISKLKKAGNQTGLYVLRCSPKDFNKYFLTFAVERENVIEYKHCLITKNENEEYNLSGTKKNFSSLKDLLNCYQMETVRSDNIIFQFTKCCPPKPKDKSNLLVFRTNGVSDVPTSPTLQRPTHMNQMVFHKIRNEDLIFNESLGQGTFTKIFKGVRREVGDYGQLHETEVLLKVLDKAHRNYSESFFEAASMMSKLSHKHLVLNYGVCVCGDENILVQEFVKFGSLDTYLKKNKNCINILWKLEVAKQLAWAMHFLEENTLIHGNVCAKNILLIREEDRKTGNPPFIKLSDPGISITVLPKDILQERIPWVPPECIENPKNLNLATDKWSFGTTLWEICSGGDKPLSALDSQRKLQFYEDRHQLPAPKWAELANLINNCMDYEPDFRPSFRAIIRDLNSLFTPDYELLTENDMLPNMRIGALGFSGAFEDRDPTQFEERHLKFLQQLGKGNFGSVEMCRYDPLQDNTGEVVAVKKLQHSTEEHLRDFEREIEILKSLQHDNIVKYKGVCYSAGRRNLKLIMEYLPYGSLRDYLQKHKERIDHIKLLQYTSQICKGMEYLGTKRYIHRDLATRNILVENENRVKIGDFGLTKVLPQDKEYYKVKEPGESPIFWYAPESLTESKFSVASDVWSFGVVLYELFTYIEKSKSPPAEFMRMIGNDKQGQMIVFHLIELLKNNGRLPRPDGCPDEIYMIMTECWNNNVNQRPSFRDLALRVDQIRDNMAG
Description for Body weight of CIA rats: as §9, §10, §11
Therefore, the differences in body weight and foot volume after the onset of arthritis compared with the negative group, respectively, can be used to evaluate the therapeutic effect in the rat model. The experimental data were expressed as Mean±SEM; the data between the two groups was tested by unpaired t-test and p<0.05 was considered as a significant difference.

Take `O=C(Nc1nc2cccc(-c3ccc(CN4CCC(F)(F)CC4)s3)n2n1)[C@H]1C[C@@H]1F` (relative stereo) [EXP-12, trans-N-[5-[5-[(4,4-difluoro-1-piperidinyl)methyl]-2-thienyl]-[1,2,4]triazolo[1,5-a]pyridin-2-yl]-2-fluorocyclopropanecarboxamide]: the IC50 against JAK1 fell in the range of 50 to 500 nM.
The same measure, in the same setting: under `O=C(Nc1nc2cccc(-c3ccc(CN4CCC(OC(F)(F)F)CC4)s3)n2n1)[C@H]1C[C@@H]1F` (relative stereo) [EXP-19] stands more than 500 nM.
Take `O=C(Nc1nc2cccc(-c3cnc(CN4CCS(=O)(=O)CC4)s3)n2n1)C1CC1` [EXP-4, N-[5-[2-[(1,1-dioxo-1,4-thiazine-4-)methyl]thiazol-5-]-[1,2,4]triazolo[1,5-a]pyridine-2-]cyclopropylcarboxamide]: the IC50 at JAK1 is more than 500 nM; in the series on Hela cells, 5 to 30 µM; in the series with BaF3 cells, 5 to 30 µM; with THP1 cells it was 5 to 30 µM.
Consider `CC1(C(=O)Nc2nc3cccc(-c4ccc(CN5CCS(=O)(=O)CC5)s4)n3n2)CC1(F)F` (centres unmarked) [EXP-7], for which the IC50 at JAK1 and against JAK2 was more than 500 nM each time.
With `O=C(Nc1nc2cccc(-c3ccc(CN4CCS(=O)(=O)CC4)s3)n2n1)[C@H]1C[C@H]1C(F)(F)F` [EXP-8], the IC50 against JAK1 and on JAK2 was more than 500 nM throughout.
For the compound `O=C(Nc1nc2cccc(-c3ccc(CN4CCS(=O)(=O)CC4)s3)n2n1)[C@@H]1C[C@H]1C(F)(F)F` [EXP-9], the IC50 against JAK1 and on JAK2 was 50 to 500 nM each time.
For the compound `O=C(Nc1nc2cccc(-c3ccc(CN4CCS(=O)(=O)CC4)s3)n2n1)C1(F)CC1` [EXP-10], the IC50 against JAK1 is more than 500 nM.
For the compound `O=C(Nc1nc2cccc(-c3ccc(CN4CCC(C(F)(F)F)CC4)s3)n2n1)[C@H]1C[C@@H]1F` [EXP-11], the IC50 on JAK1 and on JAK2 was 50 to 500 nM in each case.
On to `Cc1cc(-c2cccc3nc(NC(=O)C4CC4)nn23)sc1CN1CCC(F)(F)CC1` [EXP-13], for which the IC50 against JAK1 and on JAK2 was 30 to 50 nM throughout.
Take `O=C(Nc1nc2cccc(-c3nnc(CN4CCS(=O)(=O)CC4)s3)n2n1)C1CC1` [EXP-14, N-[5-[5-[(1,1-dioxo-1,4-thiazin-4-)methyl]-1,3,4-thiadiazol-2-]-[1,2,4]triazolo[1,5-a]pyridine-2-]cyclopropylcarboxamide]: the IC50 on JAK1 and against JAK2 was more than 500 nM in each case.
Compound `O=C(Nc1nc2cccc(-c3nnc(CN4CCS(=O)(=O)CC4)o3)n2n1)C1CC1` [EXP-15, N-[5-[5-[(1,1-dioxo-1,4-thiazin-4-)methyl]-1,3,4-oxadiazole-2-]-[1,2,4]triazolo[1,5-a]pyridine-2-]cyclopropylcarboxamide] yielded an IC50 against JAK1 of more than 500 nM.
The compound `O=C(Nc1nc2cccc(-c3ccc(COCCc4cn[nH]c4)s3)n2n1)C1CC1` [EXP-16, N-[5-[5-[2-(1H-pyrazol-4-yl)-ethoxymethyl]-2-thienyl]-[1,2,4]triazolo[1,5-a]pyridin-2-yl]cylopropanecarboxamide] yielded an IC50 on JAK1 of more than 500 nM.
At JAK1, `O=C(NCCc1nccs1)c1ccc(-c2cccc3nc(NC(=O)C4CC4)nn23)s1` [EXP-17, 5-[2-[2-thiazole-2-ethyl]carboxamido]-thiophene-[1,2,4]triazolo[1,5-a]pyridine-2-cyclopropanecarboxamide] showed an IC50 of more than 500 nM.
In the case of `O=C(NCCc1nccs1)c1cc(-c2cccc3nc(NC(=O)C4CC4)nn23)cs1` [EXP-18], the IC50 against JAK1 and against JAK2 was 50 to 500 nM throughout.
Turning to `CC[C@@H]1CN(C(=O)NCC(F)(F)F)C[C@@H]1c1cnc2cnc3[nH]ccc3n12` [Upadacitinib, upadacitinib, reference compound], the “Foot volume (ml)/Day” value in the series on rat CIA model [1] (day 0) is 2.611 ± 0.022 mL; with rat CIA model [1] (day 8), 2.599 ± 0.020 mL; in the series on rat CIA model [1] (day 11), 2.738 ± 0.110 mL; in the series with rat CIA model [1] (day 14), 3.675 ± 0.314 mL; in the series with rat CIA model [1] (day 17), 4.126 ± 0.301 mL; with rat CIA model [1] (day 21), 4.591 mL. Further, the results for the “Foot volume (ml)/Day” value in the series with rat CIA model [1] (day 24) and with rat CIA model [1] (day 28) were 4.403 mL and 3.990 mL, respectively. Besides, the “Body weight (g)/Day” value in “Body weight of CIA rats” (day 0) is given as 172.3 ± 1.8 g; in “Body weight of CIA rats” (day 8), 170.4 ± 2.1 g; in the series “Body weight of CIA rats” (day 11) it was 169.4 ± 2.8 g; in the series “Body weight of CIA rats” (day 14) it was 170 ± 2.2 g; in the series “Body weight of CIA rats” (day 17), 170.8 ± 3.3 g; in “Body weight of CIA rats” (day 21) it was 168.6 ± 2.9 g. Besides, the “Body weight (g)/Day” value came to 165.9 ± 2.9 g in “Body weight of CIA rats” (day 24) and 170.5 ± 3.1 g in “Body weight of CIA rats” (day 28). For the same compound, the “Arthritis index/Day” value in the series on rat CIA model [2] (day 0) is 0 ± 0; in the series with rat CIA model [2] (day 8), 0 ± 0; in the series on rat CIA model [2] (day 11) it was 0.63 ± 0.38; in the series on rat CIA model [2] (day 14) it was 3.50 ± 0.73; with rat CIA model [2] (day 17), 5.50 ± 1.00; in the series with rat CIA model [2] (day 21), 9.00 ± 1.07. Besides, the “Arthritis index/Day” value with rat CIA model [2] (day 24) is listed as 9.38 ± 0.71.
